{
  "source": "ChEMBL document CHEMBL1135564",
  "about": "“Diaryl-dialkyl-substituted pyrazoles: regioselective synthesis and binding affinity for the estrogen receptor” (Bioorg Med Chem Lett, 2002)",
  "key": {"[1]": {"molecular_target": "Estrogen receptor beta (Homo sapiens) (UniProt Q92731)", "sequence (Q92731 whole entry)": "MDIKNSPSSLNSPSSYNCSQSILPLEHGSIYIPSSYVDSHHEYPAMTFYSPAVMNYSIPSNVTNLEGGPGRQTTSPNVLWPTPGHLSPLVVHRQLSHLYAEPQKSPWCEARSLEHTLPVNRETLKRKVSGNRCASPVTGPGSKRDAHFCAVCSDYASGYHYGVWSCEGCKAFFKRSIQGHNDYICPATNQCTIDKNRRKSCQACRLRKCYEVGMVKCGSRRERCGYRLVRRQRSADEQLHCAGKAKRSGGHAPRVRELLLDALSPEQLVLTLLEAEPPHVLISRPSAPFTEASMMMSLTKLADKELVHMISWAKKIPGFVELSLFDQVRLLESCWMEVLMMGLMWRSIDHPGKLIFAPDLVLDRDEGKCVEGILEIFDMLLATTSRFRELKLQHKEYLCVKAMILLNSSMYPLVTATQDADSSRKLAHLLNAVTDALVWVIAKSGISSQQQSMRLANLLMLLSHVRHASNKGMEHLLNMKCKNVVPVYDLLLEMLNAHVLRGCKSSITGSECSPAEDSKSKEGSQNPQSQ", "experiment": "Relative binding affinity (RBA) for human Estrogen receptor beta compared to estradiol"}, "[2]": {"molecular_target": "T1, Estrogen receptor (Homo sapiens) (UniProt P03372)", "T1 sequence (whole entry)": "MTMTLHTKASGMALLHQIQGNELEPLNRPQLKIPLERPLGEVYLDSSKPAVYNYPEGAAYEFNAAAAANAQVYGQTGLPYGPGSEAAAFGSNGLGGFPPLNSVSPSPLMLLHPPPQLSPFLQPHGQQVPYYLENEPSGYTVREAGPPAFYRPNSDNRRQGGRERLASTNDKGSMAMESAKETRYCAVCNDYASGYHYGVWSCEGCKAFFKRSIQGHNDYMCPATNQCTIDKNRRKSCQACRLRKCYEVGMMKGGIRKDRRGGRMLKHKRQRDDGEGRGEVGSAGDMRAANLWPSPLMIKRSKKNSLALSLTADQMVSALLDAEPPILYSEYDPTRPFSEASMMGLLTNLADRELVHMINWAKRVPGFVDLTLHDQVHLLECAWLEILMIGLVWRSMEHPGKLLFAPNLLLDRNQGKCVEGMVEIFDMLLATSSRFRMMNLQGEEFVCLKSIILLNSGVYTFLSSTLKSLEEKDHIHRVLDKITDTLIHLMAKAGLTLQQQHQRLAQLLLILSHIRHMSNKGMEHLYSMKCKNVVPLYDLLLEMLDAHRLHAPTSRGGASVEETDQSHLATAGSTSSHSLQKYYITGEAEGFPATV", "experiment": "Relative binding affinity (RBA) for human Estrogen receptor alpha compared to estradiol"}, "[3]": {"molecular_target": "Estrogen receptor (Homo sapiens) (UniProt Q92731+P03372)", "experiment": "Selectivity ratio as relative binding affinity for estrogen receptor alpha and beta", "type": "protein assay"}},
  "data": [
    {"smiles": "CCCc1c(-c2ccc(O)cc2)nn(-c2ccc(O)cc2)c1C1CCCCC1", "values": [
      {"measurement": "Affinity", "setting": "[1]", "result": 0.11},
      {"measurement": "Affinity", "setting": "[2]", "result": 1.1},
      {"measurement": "Ratio", "setting": "[3]", "result": 9.4}
    ]},
    {"smiles": "CCCc1c(-c2ccc(O)cc2)nn(-c2ccc(O)cc2)c1-c1ccc(O)cc1", "values": [
      {"measurement": "Affinity", "setting": "[1]", "result": 0.12},
      {"measurement": "Affinity", "setting": "[2]", "result": 49},
      {"measurement": "Ratio", "setting": "[3]", "result": 410}
    ]},
    {"smiles": "Oc1ccc(-c2nn(-c3ccc(O)cc3)c3c2CCCC3)cc1", "values": [
      {"measurement": "Affinity", "setting": "[1]", "result": 0.042},
      {"measurement": "Affinity", "setting": "[2]", "result": 0.56},
      {"measurement": "Ratio", "setting": "[3]", "result": 13}
    ]},
    {"smiles": "CCCc1c(-c2ccc(O)cc2)nn(-c2ccc(O)cc2)c1C1CCCC1", "values": [
      {"measurement": "Affinity", "setting": "[1]", "result": 0.6},
      {"measurement": "Affinity", "setting": "[2]", "result": 3.6},
      {"measurement": "Ratio", "setting": "[3]", "result": 6}
    ]},
    {"smiles": "CCc1c(-c2ccc(O)cc2)nn(-c2ccc(O)cc2)c1C1CCCCC1", "values": [
      {"measurement": "Affinity", "setting": "[1]", "result": 0.14},
      {"measurement": "Affinity", "setting": "[2]", "result": 0.59},
      {"measurement": "Ratio", "setting": "[3]", "result": 4.2}
    ]},
    {"smiles": "Oc1ccc(-c2nn(-c3ccc(O)cc3)c3c2CCCCC3)cc1", "values": [
      {"measurement": "Affinity", "setting": "[1]", "result": 0.047},
      {"measurement": "Affinity", "setting": "[2]", "result": 0.19},
      {"measurement": "Ratio", "setting": "[3]", "result": 4}
    ]},
    {"smiles": "CCCc1c(-c2ccc(O)cc2)nn(C2CCCC2)c1-c1ccc(O)cc1", "values": [
      {"measurement": "Affinity", "setting": "[1]", "result": 71},
      {"measurement": "Affinity", "setting": "[2]", "result": 74},
      {"measurement": "Ratio", "setting": "[3]", "result": 1}
    ]},
    {"smiles": "CCc1c(-c2ccc(O)cc2)nn(-c2ccc(O)cc2)c1C1CCCC1", "values": [
      {"measurement": "Affinity", "setting": "[1]", "result": 0.23},
      {"measurement": "Affinity", "setting": "[2]", "result": 2.1},
      {"measurement": "Ratio", "setting": "[3]", "result": 8.9}
    ]},
    {"smiles": "CCCc1c(-c2ccc(O)cc2)nn(C2CCCCC2)c1-c1ccc(O)cc1", "values": [
      {"measurement": "Affinity", "setting": "[1]", "result": 13},
      {"measurement": "Affinity", "setting": "[2]", "result": 30},
      {"measurement": "Ratio", "setting": "[3]", "result": 2.3}
    ]}
  ]
}
